Test results reported in patent US7183267B2, “β-lactamase inhibitors and methods of use thereof” (priority 2003, dated 2007).
In brackets after ≈: the same amount, converted by molar mass.

Columns and labels:
[1] = molecular target: β-lactamase mutant R244S (Escherichia coli, UniProt P62593, R241S); type: biochemical; conditions: number higher than 1 reflects a loss of potency against mutant
Experimental: (§1) The inhibition of TEM-1 β-lactamase was determined spectrophotometrically. B-lactamase activity was followed by measuring the hydrolysis of nitrocefin, [3-(2,4-dinitrostyryl)-(6R, 7R)-7-(2-thienylacetamido)-ceph-3-em-4-carboxylic acid, E-isomer], (Calbiochem, San Diego, Calif., USA) at 486 nm. Inhibition assays were performed at 25° C. in 50 mM sodium phosphate, 5% DMSO, pH 7.0. […] Inhibitor was added to the enzyme and incubated for ten minutes before the addition of substrate. Inhibition constants (Ki) for the inhibitors are obtained at the desired temperature and solvent conditions by measuring the rate of substrate hydrolysis at increasing amounts of inhibitors.
(§2) Three of the most important mutations are M69I, R244S and E104K.

[2] = molecular target: β-lactamase mutant E104K (Escherichia coli, UniProt P62593, E102K); type: biochemical; conditions: number higher than 1 reflects a loss of potency against mutant
Experimental: as §1, §2

[3] = molecular target: β-lactamase mutant M69I (Escherichia coli, UniProt P62593, M67I); type: biochemical; conditions: number higher than 1 reflects a loss of potency against mutant
Experimental: as §1, §2

[4] = molecular target: T1, TEM-1 β-lactamase (Escherichia coli, UniProt P62593); test: TEM-1 β-lactamase inhibition assay (nitrocefin hydrolysis, 486 nm); type: biochemical
Experimental: as §1
The competitive inhibition of β-lactamase was determined spectrophotometrically using a Varian (Walnut Creek, Calif.) Cary 100 UV-Visible spectrophotometer. β-lactamase activity was followed by measuring the hydrolysis of nitrocefin, [3-(2,4-dinitrostyryl)-(6R, 7R)-7-(2-thienylacetamido)-ceph-3-em-4-carboxylic acid, E-isomer], (Calbiochem, San Diego, Calif.) at 486 nm. Inhibition assays were performed at 25° C. in 50 mM sodium phosphate, 5% DMSO, pH 7.0. […] Penicillin G (Sigma, St. Louis, Mo.) was also used as a substrate to determine KM and kcat.
Inhibitor was added to protein and incubated for ten minutes before the addition of substrate. Inhibition constants were determined by measuring the loss of P-lactamase activity with increasing inhibitor concentrations and fitting the data to standard equations for competitive inhibition.
(§3) These methods can also be used to express and assay recombinant TEM-1 variant of β-lactamase.

[5] = molecular target: β-lactamase R244S (Escherichia coli, UniProt P62593, R241S); test: Isothermal titration calorimetry, binding enthalpy, R244S mutant
Experimental: (§4) The binding of the compounds of the present invention to β-lactamase was also measured by isothermal titration calorimetry.
(§5) These experiments, in combination with the inhibition assays, indicate that the compounds identified in this disclosure bind to the wild type as well as drug resistant beta lactamases with favorable binding enthalpies. This is a very important characteristic from the point of view of further optimization since it facilitates the achievement of extremely high affinities and low susceptibilities to drug resistant mutations and naturally occurring polymorphisms.
(§6) Isothermal titration calorimetry was performed on a high-precision VP-ITC titration calorimeter (Microcal Inc., Northampton, Mass.). β-Lactamase solutions were titrated with inhibitors in 50 mM sodium phosphate, 2% DMSO, pH 7.0, with β-lactamase concentrations ranging from 15 to 25 μM and inhibitor concentrations ranging from 300 to 1000 μM. The heat evolved from each injection was obtained by integrating the calorimetric signal. Heat of binding was obtained as the difference between the heat of reaction and the heat of inhibitor dilution. Data were analyzed using Origin 7.0 (OriginLab Corporation, Northampton, Mass.).

[6] = molecular target: β-lactamase M69I (Escherichia coli, UniProt P62593, M67I); test: Isothermal titration calorimetry, binding enthalpy, M69I mutant
Experimental: as §4, §5, §6

[7] = molecular target: β-lactamase E104K (Escherichia coli, UniProt P62593, E102K); test: Isothermal titration calorimetry, binding enthalpy, E104K mutant
Experimental: as §4, §5, §6

[8] = molecular target: β-lactamase wt (Escherichia coli, UniProt P62593); test: Isothermal titration calorimetry, binding enthalpy, wild type
Experimental: as §4, §5, §6

[9] = system: methicillin resistant S. aureus ATCC 33591 (MRSA-ATCC); test: MIC assay, broth microdilution, MRSA-ATCC; type: cell-based; conditions: for MIC: Staphylococcus aureus, 24 h
Experimental: (1) methicillin resistant S. aureus ATCC 33591 (MRSA-ATCC). This strain was obtained from American Type Culture Collection (ATCC), Manassas, Md.;
(§7) The strains were processed according to procedures recommended by ATCC, or procedures that are routinely used. Single colonies of each organism were picked for purification to generate pure working cultures. Prior to each experiment each strain was subcultured on a fresh Mueller-Hinton agar plate (MHA).
(§8) Inocula for the MIC assays were prepared by transferring a tiny portion of one colony from a MHA plate to 2 ml of Mueller-Hinton broth (MHB) such that the estimated cell density was about 10^7 colony forming unit (CFU)/ml. This cell suspension was then further diluted 10-fold (to 10^6 CFU/ml) by transferring the 2 ml cell suspension to 18 ml of MHB. Addition of 50 μl of this dilute cell suspension to 50 μl of growth medium yielded the desired cell density, namely about 5×10^4 CFU/well, or 5×10^5 CFU/ml.
(§9) The MIC value of oxacillin was determined using the broth microdilution procedure recommended by the National Committee of Clinical Laboratory Standards (NCCLS, 2000).
(§10) The MIC experiments were performed in duplicate in 96-well microtiter plates using MHB. A stock solution of 2.6 mg/0.5 ml was prepared in dimethylsulfoxide (DMSO). A total of 8 two-fold serial dilutions were made with DMSO. Initial oxacillin doses used were (μg/ml): 64, 32, 16, 8, 4, 2, 1, and 0.5. Doses were adjusted in the confirmatory experiment, if needed, in order to establish an actual MIC value.
(§11) To each well of a 96 well microtiter plate was added 47.5 μl of MHB. A volume of 2.5 μl of each dilution of oxacillin was then transferred to appropriate wells containing the medium. All wells, except the sterility control wells, were then inoculated with 50 μl of a diluted cell suspension to give a final volume of 100 μl and a final cell density of 5×10^4 CFU/well. The volume in the sterility control wells was adjusted to 100 μl with MHB. A sterile pipette tip was used to mix the contents of each well (one tip was used going from the low to the high concentration in the same column). The microtiter plates were covered with the lids and were placed in large Stratagene Big Blue plates (Cat. # 400041). Four large kimwipes moistened with tap water were placed near the edges of the Stratagene plates to prevent evaporation of the medium. The microtiter plates were incubated for at least 24 hours at 35° C. The plates were then evaluated for growth in each well. Controls included: medium sterility and negative control (medium and bacteria only).
(§12) The procedure used to determine the antimicrobial activity of the compounds of the present invention was identical to the broth microdilution procedure described above with the exception of the preparation of the stock solutions. Stock solution at concentration of 40.96 mg/0.5 ml was prepared in DMSO for each of the compounds. A total of 8 two-fold dilutions were then made in DMSO. A volume of 2.5 μl of each dilution was delivered to appropriate wells. The initial doses used were (μg/ml): 512, 256, 128, 64, 32, 16, 8, and 4.
(§13) A numerical code was used to evaluate the extent of growth as indicated below. • 0: absence of growth • 1: barely visible (faint) growth • 2: fair growth but less than the negative solvent control • 3: growth is equivalent to the negative solvent control.
(§14) The lowest dose at which no visible growth is observed was determined to be the MIC value.
(§15) MIC assays were performed with oxacillin and the four compounds. Each of the compounds was tested at the following 8 doses (μg/ml): 512, 256, 128, 64, 32, 16, 8, and 4. Oxacillin was tested at the following 8 doses (μg/ml): 64, 32, 16, 8, 4, 2, 1, and 0.5.

[10] = system: methicillin resistant S. aureus from Stanford University Hospital (MRSA-SU); test: MIC assay, broth microdilution, MRSA-SU; type: cell-based; conditions: for MIC: Staphylococcus aureus, MRSA, 24 h
Excerpt: (2) methicillin resistant S. aureus from Stanford University Hospital Clinical Microbiology/Virology Laboratory (MRSA-SU). […] Such Staphylococci are also resistant to all penicillins, and all cephalosporins, in addition to all β-lactamase inhibitor combinations (including ampicillin/sulbactarn, amoxicillin/clavulanic acid, piperacillin/tazobactam), imipenem, and meropenem; and
as §7, §8, §9, §10, §11, §12, §13, §14, §15

[11] = system: methicillin sensitive S. aureus ATCC 25923 (MSSA); test: MIC assay, broth microdilution, MSSA; type: cell-based; conditions: for MIC: Staphylococcus aureus, 24 h
Experimental: (3) methicillin sensitive S. aureus ATCC 25923 (MSSA). This strain was obtained from ATCC and was used as a control.
as §7, §8, §9, §10, §11, §12, §13, §14, §15

[12] = molecular target: T1, TEM-1 β-lactamase; test: Isothermal titration calorimetry, binding to TEM-1 β-lactamase (Example 17); conditions: ITC
Experimental: as §6, §3
Also shown are the results obtained for β-lactamase variant TEM-1.

[13] = Ki, 25° C., 50 mM sodium phosphate, 5% DMSO, pH 7.0, enzyme 5 nM, nitrocefin 167 μM
[14] = Ki from Lineweaver-Burke Analysis, values in parenthesis, Lineweaver-Burke analysis

Row | SMILES | Loss of potency: ratio of the inhibitory constant between mutant and wild type (Potencywt/Potencymutant), R244S [1] | Loss of potency: ratio of the inhibitory constant between mutant and wild type (Potencywt/Potencymutant), E104K [2] | Loss of potency: ratio of the inhibitory constant between mutant and wild type (Potencywt/Potencymutant), M69I [3] | Ki [4, 13] | ΔH R244S [5] | ΔH M69I [6] | ΔH E104K [7] | ΔH wt [8] | Ki [4, 14] | further results
1 | O=C(Oc1ccc([N+](=O)[O-])cc1)c1cc(B(O)O)cc([N+](=O)[O-])c1 [Compound (1a), 3-(4-Nitrophenoxycarbonyl)-5-nitrophenylboronic acid] | 0.44 | 0.39 | 0.43 | 80 ± 9 µM | – | – | – | – | – | melting point: 205 to 207 °C
2 | COC(=O)c1cc(B(O)O)cc([N+](=O)[O-])c1 [Compound F1212] | – | – | – | – | -8900 cal/mol | -3300 cal/mol | -4500 cal/mol | -4700 cal/mol | – | Ki ([4]; 25° C., 50 mM sodium phosphate, 5% DMSO, pH 7.0, enzyme 5 nM, nitrocefin 167 μM): 95 µM
3 | O=C(Oc1ccccc1[N+](=O)[O-])c1cc(B(O)O)cc([N+](=O)[O-])c1 [Compound F1204] | – | – | – | – | – | – | – | – | – | MIC [9]: 256 µg/mL (≈ 771 µM); MIC [10]: 512 µg/mL; MIC [11]: 512 µg/mL (≈ 1540 µM)
4 | CCOC(=O)c1ccccc1OC(=O)c1cc(B(O)O)cc([N+](=O)[O-])c1 [Compound (1i), 3-(2-Ethoxycarbonyl-phenoxycarbonyl)-5-nitrophenylboronic acid] | 0.34 | 0.36 | 0.50 | 101 ± 4 µM | – | – | – | – | – | –
5 | O=C(Oc1c(Cl)cccc1[N+](=O)[O-])c1cc(B(O)O)cc([N+](=O)[O-])c1 [Compound (1h), 3-(2-Chloro-6-nitrophenoxycarbonyl)-5-nitrophenylboronic acid] | 0.86 | 0.77 | 1.2 | 9.5 ± 0.8 µM | -11931 cal/mol | -953 cal/mol | -1896 cal/mol | -1140 cal/mol | 0.65 µM | ΔG [12]: -6614 cal/mol; ΔH [12]: -1140 cal/mol; −TΔS [12]: -5474 cal/mol; Ki ([4]; Ki, TEM-1 β-lactamase): 9.5 µM
6 | O=C(O)c1cccc(B(O)O)c1 [Compound F1203] | – | – | – | – | – | – | – | – | – | bacteriotoxicity at high dose ([9]; 512 μl/ml, MRSA-ATCC): not bacteriotoxic; MIC [9]: > 512 µg/mL; bacteriotoxicity at high dose ([10]; 512 μl/ml, MRSA-SU): not bacteriotoxic; MIC [10]: > 512 µg/mL; bacteriotoxicity at high dose ([11]; 512 μl/ml, MSSA): not bacteriotoxic; MIC [11]: > 512 µg/mL
7 | N#Cc1ccccc1OC(=O)c1cc(B(O)O)cc([N+](=O)[O-])c1 [Compound (1g), 3-(2-Cyanophenoxycarbonyl)-5-nitrophenylboronic acid] | 0.26 | 0.32 | 0.40 | 37 ± 3 µM | -8200 cal/mol | -2460 cal/mol | -6397 cal/mol | -5520 cal/mol | 1.37 µM | –
8 | O=C(Oc1ccccc1Cl)c1cc(B(O)O)cc([N+](=O)[O-])c1 [Compound (1j), 3-(2-Chlorophenoxycarbonyl)-5-nitrophenylboronic acid] | 0.37 | 0.15 | 0.33 | 28 ± 2 µM | -6877 cal/mol | -1693 cal/mol | -2756 cal/mol | -2145 cal/mol | 1.31 µM | –
